Data taken from patent US12636285B2 (ViiV Healthcare Company, priority 2019, dated 2026).
Like-named read-outs stand apart in the source and are kept apart here.

Tests used:
[1] = Lactating rats, exposure of pups through milk; type: in vivo, rat; conditions: administered to lactating rats
From the text: The Centers for Disease Control and Prevention recommends that HIV-1-infected mothers in the United States not breastfeed their infants to avoid risking postnatal transmission of HIV-1 infection. It is not known if the components of the Combination are present in human breast milk, affect human milk production, or have effects on the breastfed infant. […] Animal Data: Cabotegravir: […] Rilpivirine: […]

[2] = QT cross-over trial of oral cabotegravir in healthy subjects; type: in vivo, human; conditions: oral cabotegravir 150 mg every 12 hours
[3] = Binding to human plasma proteins; type: in vitro ADME; conditions: read-out: % Bound to human plasma proteins (converted)
[4] = system: OATP1B1, OATP1B3, OCT1, P-gp, BCRP; experiment: In vitro transporter substrate assessment; type: in vitro ADME
[5] = in vivo
From the text: The observed hepatocellular findings in mice may be rodent specific.

[6] = Fertility studies in rats; type: in vivo, rat; conditions: oral, 1,000 mg/kg/day up to 26 weeks, male and female rats

C[C@H]1CO[C@@H]2Cn3cc(C(=O)NCc4ccc(F)cc4F)c(=O)c(O)c3C(=O)N12 [Cabotegravir, (3S,11aR)-N-[(2,4-difluorophenyl)methyl]-6-hydroxy-3-methyl-5,7-dioxo-2,3,5,7,11,11a-hexahydro[1,3]oxazolo[3,2-a]pyrido[1,2-d]pyrazine-8-carboxamide]
presence in milk [1]: present in milk
QTc interval over 24 hours post dose [2]: did not prolong the QTc interval
maximum time-matched mean QTc change (QTcF), baseline and placebo adjusted ([2]; 3 doses): 2.62 ms
fraction unbound [3]: < 0.002
substrate of OATP1B1, OATP1B3, or OCT1 [4]: not a substrate
substrate of P-gp and BCRP [4]: is a substrate
carcinogenicity ([5]; mouse): not carcinogenic
carcinogenicity ([5]; rat): not carcinogenic
effects on reproductive organs, spermatogenesis, mating or fertility [6]: did not cause adverse effects
